Measurements taken from patent US8309107B2, “Stable solutions of orlistat for pharmaceutical dosage forms” (Banner Pharmacaps, Inc., priority 2008, dated 2012).

Experiment: Compatibility of orlistat with surfactants
Type: physicochemical
Conditions: Chremophor EL emulsifying agent

For `CCCCCCCCCCC[C@@H](C[C@@H]1OC(=O)[C@H]1CCCCCC)OC(=O)[C@H](CC(C)C)NC=O` [orlistat], the “effect of surfactant on degradation of orlistat” value was “accelerate degradation”.
